These results are taken from patent US12329765B2, “Targeted nanoparticle for the treatment of traumatic brain injury and other CNS diseases” (priority 2021, dated 2025).

The conditions of data set [1]: 35 day observation. The method, then:
Before treatment, body weight was determined for all the animals. During the course of observation period of 35 days, the animals were followed up twice daily for symptoms of any adverse effect and were physically examined for the sign of morbidity throughout the study period.
On day 0, 15 and 35, all the animals were weighed, and their weights were recorded.

The nature of data set [2]: Minocycline forced degradation (acid, base, H2O2, light) by HPLC. It is filed as physicochemical. An excerpt:
Measuring the drug molecule's stability is essential as it directly impacts the formulation strategy when designing the drug-loaded nanoparticle.

Data set [3] in a line: In vivo toxicity: gross observable behavioral effects (Irwin). Set-up: species or system rat. The conditions noted are these: 35 days.
The conditions of data set [4]: rat models; cited from earlier work.
The conditions of data set [5]: in vivo; cited from earlier work.

Each structure is given as a SMILES string. Some results are limits rather than exact numbers.

For `CN(C)c1ccc(O)c2c1C[C@H]1C[C@H]3[C@H](N(C)C)C(O)=C(C(N)=O)C(=O)[C@@]3(O)C(O)=C1C2=O` [minocycline, Minocycline], the “body weight versus saline treated control group” value in data set [1] is reported as “no reduction in body weight”. Also, the recovery at 1 h, 100 μg/mL in data set [2] (1 M HCl solution, HCl (1 M, 1 h RT)) amounted to 88.9%; in data set [2] (1 M NaOH solution, NaOH (1 M, 1 h RT)) it was 74%. The compound also returned a recovery at 24 h, 100 μg/mL in data set [2] (UV Light (24 h light exposure)) of 98.54 ± 0.71%. The “gross observable behavioral parameters (alertness, visual placing, passivity, spontaneous motor activity, touch response)” value in data set [3] is “mild changes in a few behavioral parameters”. For the same compound, the half-life in data set [4] is 2 to 3 h.
Consider `C[C@H]1C[C@H]2[C@@H]3CCC4=CC(=O)C=C[C@]4(C)[C@@]3(F)[C@@H](O)C[C@]2(C)[C@@]1(O)C(=O)COP(=O)(O)O` [free betamethasone phosphate, betamethasone phosphate], for which, in data set [5], the “time to disappearance from the cochlea” value is at most 12 h.

As a reminder, the half-life is the time needed for the level to fall by half in the phase considered.
